# Laboratory results: PMC5075052, “Modulation of the Substitution Pattern of 5-Aryl-2-Aminoimidazoles Allows Fine-Tuning of Their Antibiofilm Activity Spectrum and Toxicity” (Antimicrobial Agents and Chemotherapy, 2016)
# What was measured:
# [1] = tested on: eukaryotic tumor cell lines, bone cells, and the nematode Caenorhabditis elegans; parameters: method as in PMID 25325155; conditions: C. elegans; cited from earlier work
# [2] = tested on: C. albicans SC5314 + E. coli MG1655; experiment: Mixed C. albicans-E. coli biofilm, selective plating CFU; format: cell-based, Candida albicans + Escherichia coli; conditions: 37°C
# Protocol: Overnight cultures of C. albicans SC5314 (YPD) and E. coli MG1655 (TSB) were washed three times with PBS, after which they were diluted in RPMI 1640 medium to OD600s of 1 and 0.01, respectively. Equal volumes of these cell suspensions were mixed, and 100 μl of this mixed cell suspension together with compound was added to the wells of a microtiter plate in triplicate. Concentrations of 25 μM (0.0625% DMSO or ethanol) and 100 μM (0.25% DMSO or ethanol) were tested. After 24 h of incubation at 37°C, the medium was removed and the biofilm was washed with PBS. Next, the cells were resuspended in 100 μl of PBS by scraping them off, sonicated (1 min, 45 kHz; USC300-T; VWR, Radnor, PA, USA), and vigorously pipetted up and down. Finally, dilution series were made, and quantification of the E. coli MG1655 and C. albicans SC5314 populations was performed using selective plating on tryptic soy agar (TSA) plates containing 25 mg/liter amphotericin B and YPD plates containing 100 μg/ml tetracycline, respectively. The percentage of C. albicans SC5314 and E. coli MG1655 cells relative to the number of cells after DMSO or ethanol control treatment was determined.
# [3] = tested on: C. albicans SC5314 + S. aureus SH1000; experiment: Mixed C. albicans-S. aureus biofilm, selective plating CFU; format: cell-based, Candida albicans + Staphylococcus aureus; conditions: 37°C
# Protocol: Overnight cultures of C. albicans SC5314 (YPD, 30°C) and S. aureus SH1000 (LB, 37°C) were washed with PBS, after which they were diluted in RPMI 1640 medium to obtain cell suspensions of 10^6 cells/ml for fungal cells and 10^8 cells/ml for bacteria. Equal volumes of these cell suspensions were mixed, and 100 μl of this mixed cell suspension together with compound was added to the wells of a microtiter plate in triplicate. Concentrations of 25 μM (0.0625% DMSO or ethanol) and 100 μM (0.25% DMSO or ethanol) were tested. The plates were incubated at 37°C for 90 min. After incubation, the wells were washed twice with PBS, and 200 μl of fresh RPMI 1640 medium with or without compounds was added in triplicate to the wells. After 24 h of incubation at 37°C, the medium was removed and the biofilm was washed with PBS. Next, the cells were resuspended in 100 μl of PBS by scraping them off, sonicated (1 min, 45 kHz; USC300-T; VWR, Radnor, PA, USA), and vigorously pipetted up and down. Finally, dilution series were made, and quantification of the S. aureus SH1000 and C. albicans SC5314 populations was performed using selective plating on TSA plates containing 25 mg/liter amphotericin B and YPD plates containing 100 μg/ml tetracycline, respectively. The percentage of C. albicans SC5314 and S. aureus SH1000 cells relative to the number of cells after DMSO or ethanol control treatment was determined.
# [4] = tested on: bone marrow-derived mesenchymal stem cells (MSC); experiment: Mammalian cell viability assay, trypan blue staining; format: cell-based; conditions: 12.5 μM, 6 days of exposure
# Protocol: (§1) The viability of two human primary cell types, namely, osteoblasts (OB) and bone marrow-derived mesenchymal stem cells (MSC), was tested according to the ISO 10993-5 standard, as previously described ([76]). Briefly, cells were seeded in 96-well tissue culture test plates (TPP; Trasadingen, Switzerland) at 5 × 10^3 cells/cm^2 in cell culture medium (advanced Dulbecco modified Eagle's medium [DMEM]) supplemented with 10% serum, 1× GlutaMAX, and 0.05 mg/ml gentamicin and were allowed to attach overnight. On the next day, the cells were exposed to (i) cell culture medium and medium with the corresponding control (0.5% ethanol or DMSO; negative controls), (ii) medium with 0.05% phenol (cytotoxic control), and (iii) medium with compounds (12.5 μM) and incubated for 2 h, 48 h, and 6 days (8 repeats for each condition). At each time point, the numbers of viable and dead cells were determined directly by trypan blue staining and indirectly by measuring metabolic activity with 3-(4,5-dimethylthiazol-2-yl)-2,5-diphenyltetrazolium bromide (MTT) staining.
# The medium was removed from the wells, 1/3 trypan blue in DMEM was added to the cells, and the cells were incubated for 3 min, after which the trypan blue was removed and DMEM was added to the wells. In each of four wells, two microscopy fields were counted for viable (transparent) and dead (blue) cells.
# osteoblasts (OB) [5] = experiment: Osteogenic differentiation, calcium and DNA assay; format: cell-based, human; conditions: 12.5 μM; for calcium deposition of OB (normalized by DNA): osteogenic medium, versus solvent control
# Protocol: (§2) The effects of the substances on the osteogenic differentiation potential were assessed as previously described ([76]). Only the substances that allowed survival of the cells for more than 3 weeks, which is the time needed for mature osteogenic differentiation, were tested. Briefly, osteoblasts and bone marrow-derived mesenchymal stem cells were cultured in a positive solvent control (osteogenic medium with 0.5% DMSO or ethanol background), a negative control (medium without osteogenic supplements), and treated samples (osteogenic medium, 0.5% DMSO or ethanol background, and 12.5 μM test compound) with four repeats per condition. The cells in the mesenchymal stem cell and osteoblast cultures were harvested after 3 or 5 weeks, respectively, for the calcium and DNA assay.
# (§3) The calcium deposition of osteoblasts and mesenchymal stem cells was measured with the calcium CPC LiquiColor test (Stanbio Laboratory, Boerne, TX) as previously described ([76]). Briefly, cell cultures were extracted with 5% trichloroacetic acid (500 μl per sample), o-cresolphthalein complex was added, and the calcium content was determined spectrophotometrically at 550 nm. The DNA content was determined as previously described ([76]). DNA values were used to normalize the calcium content. Four wells per condition were examined, and two samples from each well were taken for each assay.
# [6] = tested on: bone marrow-derived mesenchymal stem cells (MSC); experiment: Osteogenic differentiation, calcium and DNA assay; format: cell-based, human; conditions: 12.5 μM; for calcium deposition of MSC (normalized by DNA): osteogenic medium, versus solvent control
# Protocol: as §2, §3
# osteoblasts (OB) [7] = experiment: Metabolic activity, MTT staining; format: cell-based; conditions: 12.5 μM, 6 days of treatment
# Protocol: as §1
# (§4) The medium was removed from the wells, and 100 μl of medium supplemented with 10% serum and 0.5 mg/ml MTT was added to the cells. The cells were incubated overnight at 37°C in 5% CO2. On the next day, the medium with MTT was removed and 100 μl acidic isopropanol was added. The cells were then centrifuged at 2,300 × g, and 50 μl of the supernatant was transferred to a new 96-well plate. The absorbance at 570 nm was measured, and the background at 660 nm was measured. Four wells per condition were examined.
# [8] = tested on: bone marrow-derived mesenchymal stem cells (MSC); experiment: Metabolic activity, MTT staining; format: cell-based; conditions: 12.5 μM, 6 days of treatment
# Protocol: as §1, §4
# [9] = 25 μM compound, relative to solvent control
SMILES,proliferation of MSC (trypan blue) [4],survival of OB allowed (osteoblasts (OB) [5]),calcium deposition of OB (normalized by DNA) (osteoblasts (OB) [5]),survival of MSC allowed [6],calcium deposition of MSC (normalized by DNA) [6],metabolic activity of OB (MTT) compared to solvent control (osteoblasts (OB) [7]),metabolic activity of MSC (MTT) compared to solvent control [8],also measured
CCCCCCCCn1c(-c2ccc(Cl)cc2)cnc1N [Compound 2],–,–,–,–,–,–,–,"toxicity (previously reported) [1]: strong toxicity; % CFU survival, E. coli ([2]; 25 μM compound): 158.6%; % CFU survival, C. albicans [2, 9]: 104.9%; % CFU survival, C. albicans ([2]; 100 μM compound): 0.0%; % CFU survival, E. coli ([2]; 100 μM compound): 0.1%; % CFU survival, C. albicans ([3]; 25 μM compound): 183.8%; % CFU survival, S. aureus ([3]; 25 μM compound): 87.7%; % CFU survival, C. albicans ([3]; 100 μM compound): 0.9%; % CFU survival, S. aureus ([3]; 100 μM compound): 0.2%"
CC(C)CNc1ncc(-c2ccc(Cl)cc2)[nH]1 [Compound 3],–,–,–,–,–,–,–,"% CFU survival, E. coli ([2]; 25 μM compound): 138.5%; % CFU survival, C. albicans [2, 9]: 143.4%; % CFU survival, C. albicans ([2]; 100 μM compound): 59.6%; % CFU survival, E. coli ([2]; 100 μM compound): 63.0%; % CFU survival, C. albicans ([3]; 25 μM compound): 165.7%; % CFU survival, S. aureus ([3]; 25 μM compound): 124.6%; % CFU survival, C. albicans ([3]; 100 μM compound): 141.3%; % CFU survival, S. aureus ([3]; 100 μM compound): 51.8%"
Clc1ccc(-c2cnc(NC3CCCC3)[nH]2)cc1 [Compound 5],–,–,–,–,–,–,–,"% CFU survival, E. coli ([2]; 25 μM compound): 100.6%; % CFU survival, C. albicans [2, 9]: 100.8%; % CFU survival, C. albicans ([2]; 100 μM compound): 38.3%; % CFU survival, E. coli ([2]; 100 μM compound): 105.6%; % CFU survival, C. albicans ([3]; 25 μM compound): 232.4%; % CFU survival, S. aureus ([3]; 25 μM compound): 75.4%; % CFU survival, C. albicans ([3]; 100 μM compound): 120.6%; % CFU survival, S. aureus ([3]; 100 μM compound): 74.5%"
Brc1ccc(-c2cnc(NCCn3cc(C4CC4)nn3)[nH]2)cc1 [Compound 6],–,–,–,–,–,–,–,toxicity (previously reported) [1]: higher level of toxicity
CCCCCCCCn1c(-c2ccccc2)cnc1NCC(C)C [Compound 8a],slightly reduced,–,–,–,–,–,–,–
CCCCCCCCn1c(-c2ccc(Cl)cc2)cnc1NCC(C)C [Compound 8b],–,more than 3 weeks,induced,more than 3 weeks,induced,–,–,–
CCCCCCCCn1c(-c2ccc(Br)cc2)cnc1NCC(C)C [Compound 8c],–,more than 3 weeks,induced,more than 3 weeks,induced,increased,increased,–
CCCCCCCCn1c(-c2ccc(Cl)c(Cl)c2)cnc1NCC(C)C [Compound 8d],increase in proliferation,more than 3 weeks,none of the compounds at 12.5 μM negatively affected the calcium deposition,more than 3 weeks,none of the compounds at 12.5 μM negatively affected the calcium deposition,increased,increased,–
CCCCCCCCn1c(-c2ccccc2)cnc1NC1CCCC1 [Compound 8e],slightly reduced,–,–,–,–,–,–,–
CCCCCCCCn1c(-c2ccc(Cl)cc2)cnc1NC1CCCC1 [Compound 8f],slightly reduced,–,–,–,–,–,–,–
CCCCCCCCn1c(-c2ccc(Br)cc2)cnc1NC1CCCC1 [Compound 8g],slightly reduced,more than 3 weeks,induced,more than 3 weeks,induced,increased,increased,–
CCCCCCCCn1c(-c2ccc(Cl)c(Cl)c2)cnc1NC1CCCC1 [Compound 8h],–,more than 3 weeks,induced,more than 3 weeks,induced,increased,increased,–
